Laboratory results reported in PubChem BioAssay (NCI).
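Grown in 96-well plates, cells were treated for 48 hours with each compound at five concentrations. Insufficient inhibition: endpoint recorded as highest concentration tested. GI50: concentration for 50% inhibition of growth. The concentration for full growth arrest is given as TGI.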

Experiments:
Assay in all cases: NCI tumour cell line growth inhibition, 48 h
[1] = test system: 786-0 renal
[2] = test system: A498 renal
[3] = test system: A549 NSCLC
[4] = test system: ACHN renal
[5] = test system: BT-549 breast
[6] = test system: CAKI-1 renal
[7] = test system: CCRF-CEM leukemia
[8] = test system: COLO 205 colon
[9] = test system: DU-145 prostate
[10] = test system: EKVX NSCLC
[11] = test system: HCC-2998 colon
[12] = test system: HCT-116 colon
[13] = test system: HCT-15 colon
[14] = test system: HL-60(TB) leukemia
[15] = test system: HOP-62 NSCLC
[16] = test system: HOP-92 NSCLC
[17] = test system: HS 578T breast
[18] = test system: HT29 colon
[19] = test system: IGROV1 ovarian
[20] = test system: K-562 leukemia
[21] = test system: KM12 colon
[22] = test system: LOX IMVI melanoma
[23] = test system: M14 melanoma
[24] = test system: MALME-3M melanoma
[25] = test system: MCF7 breast
[26] = test system: MDA-MB-231 breast
[27] = test system: MDA-MB-435
[28] = test system: MDA-MB-468 breast
[29] = test system: MOLT-4 leukemia
[30] = test system: NCI-H226 lung
[31] = test system: NCI-H23 lung
[32] = test system: NCI-H460 lung
[33] = test system: NCI-H522 lung
[34] = test system: OVCAR-3 ovarian
[35] = test system: OVCAR-4 ovarian
[36] = test system: OVCAR-5 ovarian
[37] = test system: OVCAR-8 ovarian
[38] = test system: PC-3 prostate
[39] = test system: RPMI-8226 leukemia
[40] = test system: RXF 393 renal
[41] = test system: SF-268 CNS
[42] = test system: SF-295 CNS
[43] = test system: SF-539 CNS
[44] = test system: SK-MEL-2 melanoma
[45] = test system: SK-MEL-28 melanoma
[46] = test system: SK-MEL-5 melanoma
[47] = test system: SK-OV-3 ovarian
[48] = test system: SN12C renal
[49] = test system: SNB-19 CNS
[50] = test system: SNB-75 CNS
[51] = test system: SR leukemia
[52] = test system: SW-620 colon
[53] = test system: T-47D breast
[54] = test system: TK-10 renal
[55] = test system: U251 CNS
[56] = test system: UACC-257 melanoma
[57] = test system: UACC-62 melanoma
[58] = test system: UO-31 renal

How did the GI50 [1] turn out when `CN(C(=O)c1ccc(C(F)(F)F)cc1C(F)(F)F)c1sc2c(c1C#N)CCC(=O)C2` was run?
Its GI50 is 15.7 µM.

What about the TGI [1] of the same molecule?
Its TGI is 34.7 µM.

What about the GI50 [2] of the same molecule?
Its GI50 is 16.9 µM.

What about the TGI [2] of the same molecule?
The TGI was 30.9 µM.

And the GI50 [3]?
The GI50 was 18.1 µM.

And the TGI [3]?
Its TGI is 41.8 µM.

And the GI50 [4]?
The GI50 was 14.2 µM.

And the TGI [4]?
Its TGI is 29.6 µM.

What about the GI50 [5] of the same molecule?
Its GI50 is 2.82 µM.

What about the TGI [5] of the same molecule?
The TGI was 8.29 µM.

And the GI50 [6]?
Its GI50 is 7.01 µM.

What about the TGI [6] of the same molecule?
The TGI was 21.1 µM.

And the GI50 [7]?
Its GI50 is 2.73 µM.

What about the TGI [7] of the same molecule?
Its TGI is 14.6 µM.

And the GI50 [8]?
The GI50 was 16 µM.

What about the TGI [8] of the same molecule?
Its TGI is 30.5 µM.

And the GI50 [9]?
Its GI50 is 17.3 µM.

And the TGI [9]?
Its TGI is 31.3 µM.

And the GI50 [10]?
Its GI50 is 14.2 µM.

And the TGI [10]?
The TGI was 30.8 µM.

And the GI50 [11]?
The GI50 was 15.1 µM.

What about the TGI [11] of the same molecule?
The TGI was 29.5 µM.

And the GI50 [12]?
The GI50 was 3.65 µM.

What about the TGI [12] of the same molecule?
Its TGI is 14.4 µM.

And the GI50 [13]?
The GI50 was 3.09 µM.

What about the TGI [13] of the same molecule?
Its TGI is 11.6 µM.

What about the GI50 [14] of the same molecule?
Its GI50 is 3.33 µM.

What about the TGI [14] of the same molecule?
Its TGI is 25.6 µM.

What about the GI50 [15] of the same molecule?
Its GI50 is 16.1 µM.

What about the TGI [15] of the same molecule?
The TGI was 30.3 µM.

What about the GI50 [16] of the same molecule?
Its GI50 is 5.35 µM.

What about the TGI [16] of the same molecule?
The TGI was 19.3 µM.

And the GI50 [17]?
Its GI50 is 3.92 µM.

And the TGI [17]?
The TGI was 28.7 µM.

And the GI50 [18]?
The GI50 was 17.6 µM.

What about the TGI [18] of the same molecule?
Its TGI is 34.4 µM.

And the GI50 [19]?
The GI50 was 11.3 µM.

What about the TGI [19] of the same molecule?
The TGI was 25.7 µM.

And the GI50 [20]?
Its GI50 is 2.7 µM.

What about the TGI [20] of the same molecule?
Its TGI is greater than 100 µM.

What about the GI50 [21] of the same molecule?
The GI50 was 4.25 µM.

What about the TGI [21] of the same molecule?
Its TGI is 17.5 µM.

What about the GI50 [22] of the same molecule?
The GI50 was 4.09 µM.

And the TGI [22]?
The TGI was 15.5 µM.

What about the GI50 [23] of the same molecule?
Its GI50 is 4.18 µM.

What about the TGI [23] of the same molecule?
The TGI was 19.2 µM.

And the GI50 [24]?
The GI50 was 18.1 µM.

What about the TGI [24] of the same molecule?
Its TGI is 36.1 µM.

And the GI50 [25]?
The GI50 was 14.6 µM.

And the TGI [25]?
The TGI was 31 µM.

And the GI50 [26]?
The GI50 was 13.1 µM.

What about the TGI [26] of the same molecule?
Its TGI is 35 µM.

What about the GI50 [27] of the same molecule?
Its GI50 is 15.7 µM.

What about the TGI [27] of the same molecule?
The TGI was 30.5 µM.

What about the GI50 [28] of the same molecule?
Its GI50 is 2.35 µM.

And the TGI [28]?
The TGI was 6.93 µM.

And the GI50 [29]?
The GI50 was 4.13 µM.

What about the TGI [29] of the same molecule?
Its TGI is 27.8 µM.

And the GI50 [30]?
Its GI50 is 16.7 µM.

What about the TGI [30] of the same molecule?
Its TGI is 40.9 µM.

What about the GI50 [31] of the same molecule?
Its GI50 is 6.94 µM.

And the TGI [31]?
The TGI was 22.8 µM.

What about the GI50 [32] of the same molecule?
The GI50 was 17.2 µM.

What about the TGI [32] of the same molecule?
The TGI was 33.2 µM.

And the GI50 [33]?
Its GI50 is 1.62 µM.

What about the TGI [33] of the same molecule?
The TGI was 3.38 µM.

What about the GI50 [34] of the same molecule?
Its GI50 is 2.4 µM.

And the TGI [34]?
Its TGI is 6.1 µM.

And the GI50 [35]?
The GI50 was 3 µM.

What about the TGI [35] of the same molecule?
The TGI was 10.3 µM.

And the GI50 [36]?
Its GI50 is 21.3 µM.

What about the TGI [36] of the same molecule?
The TGI was 39.6 µM.

What about the GI50 [37] of the same molecule?
Its GI50 is 4.66 µM.

And the TGI [37]?
Its TGI is 19 µM.

What about the GI50 [38] of the same molecule?
The GI50 was 2.69 µM.

What about the TGI [38] of the same molecule?
The TGI was 6.93 µM.

What about the GI50 [39] of the same molecule?
Its GI50 is 2.82 µM.

And the TGI [39]?
The TGI was 13.3 µM.

And the GI50 [40]?
Its GI50 is 2.74 µM.

What about the TGI [40] of the same molecule?
The TGI was 10.1 µM.

And the GI50 [41]?
The GI50 was 12.1 µM.

What about the TGI [41] of the same molecule?
Its TGI is 32.8 µM.

What about the GI50 [42] of the same molecule?
The GI50 was 12.3 µM.

And the TGI [42]?
Its TGI is 25.6 µM.

What about the GI50 [43] of the same molecule?
Its GI50 is 2.34 µM.

And the TGI [43]?
Its TGI is 5.04 µM.

And the GI50 [44]?
The GI50 was 14.3 µM.

And the TGI [44]?
Its TGI is 31 µM.

And the GI50 [45]?
Its GI50 is 21.4 µM.

What about the TGI [45] of the same molecule?
The TGI was 43.8 µM.

And the GI50 [46]?
The GI50 was 8.15 µM.

What about the TGI [46] of the same molecule?
Its TGI is 21.1 µM.

What about the GI50 [47] of the same molecule?
The GI50 was 15.3 µM.

What about the TGI [47] of the same molecule?
The TGI was 28.9 µM.

What about the GI50 [48] of the same molecule?
The GI50 was 10.5 µM.

What about the TGI [48] of the same molecule?
The TGI was 29.6 µM.

And the GI50 [49]?
Its GI50 is 12.4 µM.

And the TGI [49]?
The TGI was 26.8 µM.

And the GI50 [50]?
Its GI50 is 5.25 µM.

What about the TGI [50] of the same molecule?
The TGI was 20.7 µM.

And the GI50 [51]?
Its GI50 is 2.64 µM.

And the TGI [51]?
The TGI was 11 µM.

And the GI50 [52]?
Its GI50 is 3.22 µM.

And the TGI [52]?
The TGI was 12.3 µM.

And the GI50 [53]?
The GI50 was 4.43 µM.

What about the TGI [53] of the same molecule?
The TGI was 30.4 µM.

What about the GI50 [54] of the same molecule?
The GI50 was 14.6 µM.

And the TGI [54]?
The TGI was 28 µM.

And the GI50 [55]?
The GI50 was 1.98 µM.

What about the TGI [55] of the same molecule?
Its TGI is 4.68 µM.

What about the GI50 [56] of the same molecule?
Its GI50 is 16.3 µM.

And the TGI [56]?
Its TGI is 32.8 µM.

And the GI50 [57]?
Its GI50 is 4.48 µM.

And the TGI [57]?
The TGI was 17 µM.

And the GI50 [58]?
Its GI50 is 3.15 µM.

What about the TGI [58] of the same molecule?
The TGI was 13.7 µM.
